Results from patent publication US10750743B2, “Pyridazinone herbicides” (E.I. DU PONT DE NEMOURS AND COMPANY, priority 2015, dated 2020).

Key:
Format in all cases: in vivo
kochia (Kochia scoparia) [1] = test: Test A preemergence, directed soil spray, visual injury rating; conditions: 0 is no effect, 100 is complete control
In short: (§1)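 Seeds sown in a loam soil–sand blend received a directed preemergence soil spray of test chemical in a non-phytotoxic solvent mixture with surfactant. Postemergence plants were sprayed at 2 to 10 cm, one- to two-leaf stage. After approximately 10 d in greenhouse, injury was visually rated 0 (no effect) to 100 (complete control) against untreated controls.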

[2] = tested on: ragweed (common ragweed, Ambrosia elatior); test: as above; conditions: 0 is no effect, 100 is complete control
In short: as §1

[3] = tested on: pigweed (Amaranthus retroflexus); test: as above; conditions: 0 is no effect, 100 is complete control
In short: as §1

[4] = tested on: ryegrass, It. (Italian ryegrass, Lolium multiflorum); test: as above; conditions: 0 is no effect, 100 is complete control
In short: as §1

[5] = tested on: barnyardgrass (Echinochloa crus-galli); test: as above; conditions: 0 is no effect, 100 is complete control
In short: as §1

[6] = tested on: foxtail, giant (giant foxtail, Setaria faberii); test: as above; conditions: 0 is no effect, 100 is complete control
In short: as §1

[7] = tested on: ducksalad (Heteranthera limosa); test: Test B flooded paddy test, visual rating; conditions: Flood, 250 g ai/ha, applied to paddy water, rated after 13 to 15 d
In short: (§2)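 Plants at the 2-leaf stage were flooded to 3 cm above soil, and test compounds were applied directly into the paddy water, which was held at that depth throughout. After 13 to 15 d in a greenhouse, injury was rated visually against untreated controls on a 0–100 scale (0 no effect, 100 complete control).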

[8] = tested on: barnyardgrass (Echinochloa crus-galli); test: Test B flooded paddy test, visual rating; conditions: Flood, 250 g ai/ha, applied to paddy water, rated after 13 to 15 d
In short: as §2

[9] = tested on: sedge, umbrella (small-flower umbrella sedge, Cyperus difformis); test: Test B flooded paddy test, visual rating; conditions: Flood, 250 g ai/ha, applied to paddy water, rated after 13 to 15 d
In short: as §2

rice (Oryza sativa) = test: Test B flooded paddy test, visual rating; conditions: Flood, 250 g ai/ha, applied to paddy water, rated after 13 to 15 d
In short: as §2

kochia (Kochia scoparia) [10] = test: Test A postemergence application, visual injury rating; conditions: 0 to 100 scale, 0 no effect, 100 complete control
In short: as §1

corn (Zea mays) = test: as above; conditions: 0 to 100 scale, 0 no effect, 100 complete control
In short: as §1

[11] = tested on: galium (catchweed bedstraw, Galium aparine); test: as above; conditions: 0 to 100 scale, 0 no effect, 100 complete control
In short: as §1

[12] = tested on: ragweed (common ragweed, Ambrosia elatior); test: as above; conditions: 0 to 100 scale, 0 no effect, 100 complete control
In short: as §1

[13] = tested on: pigweed (Amaranthus retroflexus); test: as above; conditions: 0 to 100 scale, 0 no effect, 100 complete control
In short: as §1

[14] = tested on: ryegrass, It. (Italian ryegrass, Lolium multiflorum); test: as above; conditions: 0 to 100 scale, 0 no effect, 100 complete control
In short: as §1

[15] = tested on: wheat (Triticum aestivum); test: as above; conditions: 0 to 100 scale, 0 no effect, 100 complete control
In short: as §1

[16] = tested on: barnyardgrass (Echinochloa crus-galli); test: as above; conditions: 0 to 100 scale, 0 no effect, 100 complete control
In short: as §1

[17] = tested on: blackgrass (Alopecurus myosuroides); test: as above; conditions: 0 to 100 scale, 0 no effect, 100 complete control
In short: as §1

[18] = tested on: foxtail, giant (giant foxtail, Setaria faberii); test: as above; conditions: 0 to 100 scale, 0 no effect, 100 complete control
In short: as §1

Compound | Plant response rating (0 to 100 scale), Kochia (kochia (Kochia scoparia) [1]; 125 g ai/ha) | Plant response rating (0 to 100 scale), Ragweed ([2]; 125 g ai/ha) | Plant response rating (0 to 100 scale), Pigweed ([3]; 125 g ai/ha) | Plant response rating (0 to 100 scale), Ryegrass, It. ([4]; 125 g ai/ha) | Plant response rating (0 to 100 scale), Barnyardgrass ([5]; 125 g ai/ha) | Plant response rating (0 to 100 scale), Foxtail, Giant ([6]; 125 g ai/ha) | Ducksalad plant response rating (0 to 100 scale, 0 is no effect, 100 is complete control) [7] | Barnyardgrass plant response rating (0 to 100 scale, 0 is no effect, 100 is complete control) [8] | Sedge, Umbrella plant response rating (0 to 100 scale, 0 is no effect, 100 is complete control) [9] | Rice plant response rating (0 to 100 scale, 0 is no effect, 100 is complete control) (rice (Oryza sativa)) | Kochia plant response rating (kochia (Kochia scoparia) [10]; 125 g ai/ha) | Corn plant response rating (corn (Zea mays); 125 g ai/ha) | Galium plant response rating ([11]; 125 g ai/ha) | Ragweed plant response rating ([12]; 125 g ai/ha) | Pigweed plant response rating ([13]; 125 g ai/ha) | Ryegrass, It. plant response rating ([14]; 125 g ai/ha) | Wheat plant response rating ([15]; 125 g ai/ha) | Barnyardgrass plant response rating ([16]; 125 g ai/ha) | Blackgrass plant response rating ([17]; 125 g ai/ha) | Foxtail, Giant plant response rating ([18]; 125 g ai/ha) | other results
COC(=O)Oc1c(C)nn(C)c(=O)c1-c1ccc(Cl)c2ccsc12 [Compound 50] | 20 | 20 | 100 | 80 | 10 | 10 | 0 | 0 | 0 | 0 | 90 | 0 | 100 | 70 | 70 | 90 | 0 | 10 | 10 | 0 | Plant response rating (0 to 100 scale), Kochia (kochia (Kochia scoparia) [1]; 31 g ai/ha): 0; Plant response rating (0 to 100 scale), Ragweed ([2]; 31 g ai/ha): 0; Plant response rating (0 to 100 scale), Pigweed ([3]; 31 g ai/ha): 0; Plant response rating (0 to 100 scale), Ryegrass, It. ([4]; 31 g ai/ha): 60; Plant response rating (0 to 100 scale), Barnyardgrass ([5]; 31 g ai/ha): 0; Plant response rating (0 to 100 scale), Foxtail, Giant ([6]; 31 g ai/ha): 0; Kochia plant response rating (kochia (Kochia scoparia) [10]; 31 g ai/ha): 40; Corn plant response rating (corn (Zea mays); 31 g ai/ha): 0; Galium plant response rating ([11]; 31 g ai/ha): 100; Ragweed plant response rating ([12]; 31 g ai/ha): 10; Pigweed plant response rating ([13]; 31 g ai/ha): 60; Ryegrass, It. plant response rating ([14]; 31 g ai/ha): 60; Wheat plant response rating ([15]; 31 g ai/ha): 0; Barnyardgrass plant response rating ([16]; 31 g ai/ha): 0; Blackgrass plant response rating ([17]; 31 g ai/ha): 0; Foxtail, Giant plant response rating ([18]; 31 g ai/ha): 0
CC(=O)Oc1c(C)nn(C)c(=O)c1-c1ccc(Cl)c2ccsc12 [Compound 51] | 20 | 0 | 60 | 100 | 20 | 0 | 0 | 0 | 0 | 0 | 90 | 0 | 100 | 50 | 60 | 100 | 0 | 10 | 10 | 0 | Plant response rating (0 to 100 scale), Kochia (kochia (Kochia scoparia) [1]; 31 g ai/ha): 0; Plant response rating (0 to 100 scale), Ragweed ([2]; 31 g ai/ha): 0; Plant response rating (0 to 100 scale), Pigweed ([3]; 31 g ai/ha): 0; Plant response rating (0 to 100 scale), Ryegrass, It. ([4]; 31 g ai/ha): 60; Plant response rating (0 to 100 scale), Barnyardgrass ([5]; 31 g ai/ha): 0; Plant response rating (0 to 100 scale), Foxtail, Giant ([6]; 31 g ai/ha): 0; Kochia plant response rating (kochia (Kochia scoparia) [10]; 31 g ai/ha): 70; Corn plant response rating (corn (Zea mays); 31 g ai/ha): 0; Galium plant response rating ([11]; 31 g ai/ha): 100; Ragweed plant response rating ([12]; 31 g ai/ha): 0; Pigweed plant response rating ([13]; 31 g ai/ha): 50; Ryegrass, It. plant response rating ([14]; 31 g ai/ha): 70; Wheat plant response rating ([15]; 31 g ai/ha): 0; Barnyardgrass plant response rating ([16]; 31 g ai/ha): 0; Blackgrass plant response rating ([17]; 31 g ai/ha): 0; Foxtail, Giant plant response rating ([18]; 31 g ai/ha): 0
CCC(=O)Oc1c(C)nn(C)c(=O)c1-c1ccc(Cl)c2oc(C)cc12 [Compound 52] | 0 | 0 | 70 | 50 | 0 | 0 | 0 | 0 | 0 | 0 | 0 | 0 | 90 | 20 | 60 | 40 | 0 | 0 | 0 | 0 | Plant response rating (0 to 100 scale), Kochia (kochia (Kochia scoparia) [1]; 500 g ai/ha): 0; Plant response rating (0 to 100 scale), Ragweed ([2]; 500 g ai/ha): 0; Plant response rating (0 to 100 scale), Pigweed ([3]; 500 g ai/ha): 100; Plant response rating (0 to 100 scale), Ryegrass, It. ([4]; 500 g ai/ha): 70; Plant response rating (0 to 100 scale), Barnyardgrass ([5]; 500 g ai/ha): 0; Plant response rating (0 to 100 scale), Foxtail, Giant ([6]; 500 g ai/ha): 0; Kochia plant response rating (kochia (Kochia scoparia) [10]; 500 g ai/ha): 20; Corn plant response rating (corn (Zea mays); 500 g ai/ha): 0; Galium plant response rating ([11]; 500 g ai/ha): 90; Ragweed plant response rating ([12]; 500 g ai/ha): 60; Pigweed plant response rating ([13]; 500 g ai/ha): 60; Ryegrass, It. plant response rating ([14]; 500 g ai/ha): 60; Wheat plant response rating ([15]; 500 g ai/ha): 0; Barnyardgrass plant response rating ([16]; 500 g ai/ha): 10; Blackgrass plant response rating ([17]; 500 g ai/ha): 10; Foxtail, Giant plant response rating ([18]; 500 g ai/ha): 0
